Consider 1 compound from US20210002371A1, “COMBINATION OF AN ANTI-PD-L1 ANTIBODY AND IDO1 INHIBITOR FOR THE TREATMENT OF CANCER” (Merck Patent GmbH, priority 2017, published 2021).

The test system of assay [1] is CT26-KSA colon carcinoma cells. Put plainly: Anti-tumor efficacy in CT26-KSA tumor-bearing mice (s.c. colon carcinoma model). Format: in vivo, BALB/c female mice. To be noted: M4112 200 mg/kg p.o. 2x/day for 3 weeks, avelumab 400 μg i.v. Days 0, 3, 6. How it is done: (§1) Tumor growth data are presented in graphical form as the mean and standard error of the mean (SEM) of tumor volumes every 3 or 4 days. Two-way repeated measures analysis of variance (RM ANOVA) with Tukey's post-test was performed to assess differences in tumor volumes between treatment groups. Treatment/Control (T/C) values were calculated as the mean tumor volume of the treatment group divided by the mean tumor volume of the control group on the last day of observation and are expressed as percentages. In all cases, p<0.05 was considered statistically significant. Kaplan Meier survival curves were analyzed by Log-Rank (Mantel-Cox) test. A Bonferroni-corrected significance threshold of p<0.0125 was used to account for multiple comparisons.
The combination treatment of avelumab and M4112 in a CT26-KSA murine model was undertaken to evaluate the anti-tumor activity in BALB/c mice. […] The tumor volume, mice survival and mouse body weight were measured. […]
CT26-KSA cells were cultured in RPMI-1640 medium containing 10% FBS, 2 mM L-glutamine, 0.1 mM non-essential amino acids (NEAA), 1 mM Na Pyruvate, 1% MEM vitamin solution and 1% G418 antibiotic (1 mg/mL). […] Cells were harvested by trypsinization with TrypLE Express and viable cell counts were determined using a Countess or hematocrit chamber cell counter and trypan blue exclusion staining. […]

The subject of assay [2] is MC38 colon carcinoma cells. Nature of the assay: Anti-tumor efficacy in MC38 tumor-bearing mice (s.c. colon carcinoma model). Format: in vivo, C57BL/6 female mice. To be noted: Day 24; M4112 200 mg/kg p.o. 2x/day for 4 weeks; avelumab 400 μg i.v. Days 0, 2, 4; control = M4112 vehicle + isotype control. How it is done: as §1
The combination treatment of avelumab and M4112 in the MC38 murine model was undertaken to evaluate the anti-tumor activity in C57BL/6 mice. […] The tumor volume, mice survival and mouse body weight were measured.
MC38 cells were cultured in DMEM containing 4.5 g/L D-glucose, 2 mM glutamine, and 110 mg/L sodium pyruvate and supplemented with 10% FBS, 0.1 mM MEM NEAA, and penicillin/streptomycin. […] Cells were harvested by trypsinization with TrypLE Express and viable cell counts were determined using a Countess or hematocrit chamber cell counter and trypan blue exclusion staining. […]

Assay [3] concerns IDO1 expressing mDCs co-cultured with PBMCs. Nature of the assay: One-way Mixed Lymphocyte Reaction (MLR) assay, IFNγ production by ELISA. Format: cell-based, human. To be noted: M4112 5 μM, avelumab 0.61-10000 ng/mL. How it is done: High levels of IDO1 in mDCs correlate with suppressed avelumab activity (IFNγ production) in the one-way MLR assay, which is reversed in an avelumab dose-dependent manner when M4112 is used in combination. Prior to the one-way MLR assay, imDCs from donor 17988 were treated with 1 μg/mL LPS for two days to obtain mDCs. Cells were stained with either an isotype control Phycoerythrin (PE) antibody or an anti-IDO1-PE antibody. (A-B) Stained cells were analyzed via FACS. Purple (solid curve) represents isotype control stained cells and green (transparent curve) represents IDO1-PE stained cells. […] On (C) Day 4 (Experiment A) or (D) Day 3 (Experiment B) of the MLR assay, IFNγ levels ([…]) were measured in the co-culture supernatant via IFNγ ELISA. […]
This example describes the in vitro characterization of M4112, alone and in combination with the anti-tumor compound avelumab, using one-way Mixed Lymphocyte Reaction (MLR) assays. […] Using this functional assay, the immune IDO1 expressing cells (mDCs) were cultured with PBMCs in the presence or absence of the IDO1/TDO2 inhibitor, M4112, and the immune response was evaluated by looking at IFNγ production. […]
A one-way MLR assay was performed with a 2.3:1 ratio of PBMC to mDC (stimulated with LPS) under two different conditions. […] Both experiments measured the change in IFNγ concentration using the optical density of a standard curve from an ELISA.

Structures are written as SMILES.

In the case of `NS(=O)(=O)[C@H]1CC[C@](F)(CC[C@H]2c3ccccc3-c3cncn32)CC1` [Compound M4112, c-4-fluoro-t-4-[(S)-2-(5H-imidazo[5,1-a]isoindol-5-yl)-ethyl]-cyclohexane-r-1-sulfonic acid amide], the median survival time in assay [1] (CT26-KSA tumor-bearing mice) amounted to 30.5 days. The “T/C (mean tumor volume of treatment group / mean tumor volume of control group)” value came out at 78% in assay [1] (Day 21, control = M4112 vehicle + isotype control) and 72% in assay [2]. Besides, the “avelumab activity (IFNγ production) in MLR” value is recorded as “the activity of avelumab was restored to normal levels” in assay [3] (Experiment A: IDO1-high mDCs, Day 4) and “no change in avelumab activity” in assay [3] (Experiment B: IDO1-low mDCs, Day 3).
